Earlier results on one molecule are cited in paper PMC9851200, “Multiparameter phenotypic screening for endogenous TFEB and TFE3 translocation identifies novel chemical series modulating lysosome function” (Autophagy, 2022).

Holding throughout (parameters): method as in original PKIS2 published data
The target in data set [1] is kinases (KINOMEscan panel) (Homo sapiens, UniProt O75460). As to conditions: Published KINOMEscan; ref original PKIS2 published data; cited from earlier work.
Data set [2] concerns the target kinases (KINOMEscan panel) (Homo sapiens, UniProt P11309). To be noted: Published KINOMEscan; ref original PKIS2 published data; cited from earlier work.
Data set [3] addresses kinases (KINOMEscan panel) (Homo sapiens, UniProt P31751). As to conditions: Published KINOMEscan; ref original PKIS2 published data; cited from earlier work.
Data set [4] concerns the target T1, kinases (KINOMEscan panel) (Homo sapiens, UniProt P35626).
T1 sequence (P35626 1-688): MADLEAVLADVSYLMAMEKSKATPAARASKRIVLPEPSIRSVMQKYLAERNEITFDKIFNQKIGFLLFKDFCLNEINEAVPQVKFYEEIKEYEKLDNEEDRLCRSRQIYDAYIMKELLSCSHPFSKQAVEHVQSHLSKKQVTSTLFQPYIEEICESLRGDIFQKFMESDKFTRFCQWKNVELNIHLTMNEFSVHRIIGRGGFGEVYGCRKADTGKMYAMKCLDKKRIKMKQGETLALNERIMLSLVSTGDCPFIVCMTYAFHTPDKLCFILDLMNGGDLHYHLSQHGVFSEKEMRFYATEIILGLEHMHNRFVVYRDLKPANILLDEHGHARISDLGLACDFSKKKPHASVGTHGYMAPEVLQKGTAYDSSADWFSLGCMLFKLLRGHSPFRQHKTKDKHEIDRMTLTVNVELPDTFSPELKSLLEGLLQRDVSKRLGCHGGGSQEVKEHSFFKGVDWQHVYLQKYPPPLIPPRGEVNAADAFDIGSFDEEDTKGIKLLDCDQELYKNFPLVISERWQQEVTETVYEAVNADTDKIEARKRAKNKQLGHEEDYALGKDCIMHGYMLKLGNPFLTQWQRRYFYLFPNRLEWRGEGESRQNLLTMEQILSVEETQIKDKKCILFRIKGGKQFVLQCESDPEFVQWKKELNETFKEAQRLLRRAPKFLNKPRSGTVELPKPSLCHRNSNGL
To be noted: GRK3; Published KINOMEscan; ref original PKIS2 published data; cited from earlier work.

For data set [5], the target named is T2, kinases (KINOMEscan panel) (Homo sapiens, UniProt Q04771).
T2 sequence (Q04771 21-509): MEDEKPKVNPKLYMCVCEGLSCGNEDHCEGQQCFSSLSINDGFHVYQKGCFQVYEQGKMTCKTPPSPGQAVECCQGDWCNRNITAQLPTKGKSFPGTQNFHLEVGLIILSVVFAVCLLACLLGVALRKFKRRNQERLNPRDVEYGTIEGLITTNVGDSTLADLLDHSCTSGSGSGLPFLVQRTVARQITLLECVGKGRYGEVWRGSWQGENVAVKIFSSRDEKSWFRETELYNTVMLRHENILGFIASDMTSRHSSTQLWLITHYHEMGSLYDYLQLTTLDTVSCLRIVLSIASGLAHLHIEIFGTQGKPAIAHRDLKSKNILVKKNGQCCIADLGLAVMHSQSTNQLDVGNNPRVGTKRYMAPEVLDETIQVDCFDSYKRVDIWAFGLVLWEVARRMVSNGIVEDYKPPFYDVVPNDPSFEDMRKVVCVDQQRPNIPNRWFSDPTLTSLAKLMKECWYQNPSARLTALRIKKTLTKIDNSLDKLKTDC
To be noted: ACVR1; Published KINOMEscan; ref original PKIS2 published data; cited from earlier work.

Data set [6] has as its target kinases (KINOMEscan panel) (Homo sapiens, UniProt Q08345). To be noted: DDR1; Published KINOMEscan; ref original PKIS2 published data; cited from earlier work.
Data set [7] addresses T3, kinases (KINOMEscan panel) (Homo sapiens, UniProt Q59H18).
T3 sequence (Q59H18 1-835): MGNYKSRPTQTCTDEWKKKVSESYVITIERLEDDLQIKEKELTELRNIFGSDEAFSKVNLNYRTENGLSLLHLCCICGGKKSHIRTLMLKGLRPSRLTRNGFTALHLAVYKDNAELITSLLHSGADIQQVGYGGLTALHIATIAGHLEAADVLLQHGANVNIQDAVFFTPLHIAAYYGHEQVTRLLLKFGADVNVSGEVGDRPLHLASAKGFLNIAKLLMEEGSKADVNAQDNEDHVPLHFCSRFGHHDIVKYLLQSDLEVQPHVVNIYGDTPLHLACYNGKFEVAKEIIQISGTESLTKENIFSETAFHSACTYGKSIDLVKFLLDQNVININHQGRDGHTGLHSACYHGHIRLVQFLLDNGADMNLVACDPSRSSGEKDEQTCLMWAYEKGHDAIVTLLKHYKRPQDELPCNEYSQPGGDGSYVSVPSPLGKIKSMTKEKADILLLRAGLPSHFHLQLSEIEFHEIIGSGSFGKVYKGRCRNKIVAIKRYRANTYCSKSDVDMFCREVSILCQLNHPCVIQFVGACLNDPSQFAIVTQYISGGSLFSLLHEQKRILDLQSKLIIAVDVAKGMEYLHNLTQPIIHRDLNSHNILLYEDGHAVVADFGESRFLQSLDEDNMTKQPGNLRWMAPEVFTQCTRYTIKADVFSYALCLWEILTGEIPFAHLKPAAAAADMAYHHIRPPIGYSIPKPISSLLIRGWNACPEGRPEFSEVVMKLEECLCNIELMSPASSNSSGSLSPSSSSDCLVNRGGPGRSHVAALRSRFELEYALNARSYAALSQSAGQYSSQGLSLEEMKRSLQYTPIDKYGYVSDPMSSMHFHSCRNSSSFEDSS
To be noted: kinase TNNI3K; Published KINOMEscan; ref original PKIS2 published data; cited from earlier work.

Data set [8] addresses kinases (KINOMEscan panel) (Homo sapiens, UniProt Q5S007). As to conditions: Published KINOMEscan; ref original PKIS2 published data; cited from earlier work.
The target in data set [9] is kinases (KINOMEscan panel) (Homo sapiens, UniProt Q9NYY3). As to conditions: PLK2; Published KINOMEscan; ref original PKIS2 published data; cited from earlier work.
Sequence of kinases (KINOMEscan panel) (Homo sapiens, UniProt Q9NYY3) (Q9NYY3 whole entry): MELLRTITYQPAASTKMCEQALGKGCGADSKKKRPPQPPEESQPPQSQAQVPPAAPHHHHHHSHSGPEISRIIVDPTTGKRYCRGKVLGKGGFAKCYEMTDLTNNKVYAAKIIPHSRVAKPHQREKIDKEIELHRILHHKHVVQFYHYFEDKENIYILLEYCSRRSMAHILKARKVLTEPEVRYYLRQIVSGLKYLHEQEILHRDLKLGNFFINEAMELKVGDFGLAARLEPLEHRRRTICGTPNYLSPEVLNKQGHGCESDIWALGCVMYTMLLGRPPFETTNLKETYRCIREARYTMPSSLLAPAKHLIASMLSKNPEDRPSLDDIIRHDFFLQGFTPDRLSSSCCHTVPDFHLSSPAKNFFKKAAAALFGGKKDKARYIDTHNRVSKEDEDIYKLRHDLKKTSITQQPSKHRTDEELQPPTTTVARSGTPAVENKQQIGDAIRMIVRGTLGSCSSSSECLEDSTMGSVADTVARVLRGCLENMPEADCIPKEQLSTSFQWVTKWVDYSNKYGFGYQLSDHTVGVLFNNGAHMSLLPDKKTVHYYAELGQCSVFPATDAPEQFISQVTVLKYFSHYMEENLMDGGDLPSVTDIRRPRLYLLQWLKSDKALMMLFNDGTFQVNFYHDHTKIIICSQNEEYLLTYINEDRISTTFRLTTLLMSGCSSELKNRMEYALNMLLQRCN
Data set [10] deals with kinases (KINOMEscan panel) (Homo sapiens, UniProt Q9Y3S1). To be noted: WNK2; Published KINOMEscan; ref original PKIS2 published data; cited from earlier work.

Sequence of kinases (KINOMEscan panel) (Homo sapiens, UniProt P31751) (P31751 whole entry): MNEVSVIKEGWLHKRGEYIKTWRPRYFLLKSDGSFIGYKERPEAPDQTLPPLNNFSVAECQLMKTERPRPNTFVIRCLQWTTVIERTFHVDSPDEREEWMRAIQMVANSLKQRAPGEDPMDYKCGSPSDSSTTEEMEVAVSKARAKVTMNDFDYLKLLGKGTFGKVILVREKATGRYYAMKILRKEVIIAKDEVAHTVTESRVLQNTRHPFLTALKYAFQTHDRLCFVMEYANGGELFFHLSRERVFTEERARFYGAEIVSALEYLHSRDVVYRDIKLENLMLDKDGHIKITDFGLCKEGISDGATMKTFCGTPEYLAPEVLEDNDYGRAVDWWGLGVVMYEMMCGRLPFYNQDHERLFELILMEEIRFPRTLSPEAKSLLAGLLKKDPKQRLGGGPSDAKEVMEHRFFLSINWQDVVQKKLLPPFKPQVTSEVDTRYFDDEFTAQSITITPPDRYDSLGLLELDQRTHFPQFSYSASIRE
Sequence of kinases (KINOMEscan panel) (Homo sapiens, UniProt O75460) (O75460 19-977): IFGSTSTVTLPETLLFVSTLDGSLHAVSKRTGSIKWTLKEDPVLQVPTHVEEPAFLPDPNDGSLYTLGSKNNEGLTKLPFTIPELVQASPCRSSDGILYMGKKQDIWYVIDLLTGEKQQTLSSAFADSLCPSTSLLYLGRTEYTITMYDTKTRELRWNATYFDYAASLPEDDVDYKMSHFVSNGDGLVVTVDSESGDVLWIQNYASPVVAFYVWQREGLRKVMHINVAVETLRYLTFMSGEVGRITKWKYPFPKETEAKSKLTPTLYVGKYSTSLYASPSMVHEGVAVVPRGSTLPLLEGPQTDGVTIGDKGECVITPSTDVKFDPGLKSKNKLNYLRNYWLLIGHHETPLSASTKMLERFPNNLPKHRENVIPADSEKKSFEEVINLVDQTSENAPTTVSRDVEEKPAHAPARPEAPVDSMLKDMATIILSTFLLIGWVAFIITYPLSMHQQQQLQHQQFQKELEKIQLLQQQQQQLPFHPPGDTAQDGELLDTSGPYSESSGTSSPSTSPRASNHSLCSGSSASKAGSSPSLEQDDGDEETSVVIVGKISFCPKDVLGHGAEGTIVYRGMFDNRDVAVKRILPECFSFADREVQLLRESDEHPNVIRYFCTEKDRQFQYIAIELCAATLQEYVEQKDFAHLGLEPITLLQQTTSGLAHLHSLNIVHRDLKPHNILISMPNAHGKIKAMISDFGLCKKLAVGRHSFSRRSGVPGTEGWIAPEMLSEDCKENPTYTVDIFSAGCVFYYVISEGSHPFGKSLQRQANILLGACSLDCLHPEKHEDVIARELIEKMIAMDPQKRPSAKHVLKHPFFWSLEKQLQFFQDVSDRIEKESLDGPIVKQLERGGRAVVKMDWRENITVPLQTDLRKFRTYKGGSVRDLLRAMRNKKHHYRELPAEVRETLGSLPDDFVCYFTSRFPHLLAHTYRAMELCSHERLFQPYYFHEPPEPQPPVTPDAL
Sequence of kinases (KINOMEscan panel) (Homo sapiens, UniProt Q08345) (Q08345 19-913): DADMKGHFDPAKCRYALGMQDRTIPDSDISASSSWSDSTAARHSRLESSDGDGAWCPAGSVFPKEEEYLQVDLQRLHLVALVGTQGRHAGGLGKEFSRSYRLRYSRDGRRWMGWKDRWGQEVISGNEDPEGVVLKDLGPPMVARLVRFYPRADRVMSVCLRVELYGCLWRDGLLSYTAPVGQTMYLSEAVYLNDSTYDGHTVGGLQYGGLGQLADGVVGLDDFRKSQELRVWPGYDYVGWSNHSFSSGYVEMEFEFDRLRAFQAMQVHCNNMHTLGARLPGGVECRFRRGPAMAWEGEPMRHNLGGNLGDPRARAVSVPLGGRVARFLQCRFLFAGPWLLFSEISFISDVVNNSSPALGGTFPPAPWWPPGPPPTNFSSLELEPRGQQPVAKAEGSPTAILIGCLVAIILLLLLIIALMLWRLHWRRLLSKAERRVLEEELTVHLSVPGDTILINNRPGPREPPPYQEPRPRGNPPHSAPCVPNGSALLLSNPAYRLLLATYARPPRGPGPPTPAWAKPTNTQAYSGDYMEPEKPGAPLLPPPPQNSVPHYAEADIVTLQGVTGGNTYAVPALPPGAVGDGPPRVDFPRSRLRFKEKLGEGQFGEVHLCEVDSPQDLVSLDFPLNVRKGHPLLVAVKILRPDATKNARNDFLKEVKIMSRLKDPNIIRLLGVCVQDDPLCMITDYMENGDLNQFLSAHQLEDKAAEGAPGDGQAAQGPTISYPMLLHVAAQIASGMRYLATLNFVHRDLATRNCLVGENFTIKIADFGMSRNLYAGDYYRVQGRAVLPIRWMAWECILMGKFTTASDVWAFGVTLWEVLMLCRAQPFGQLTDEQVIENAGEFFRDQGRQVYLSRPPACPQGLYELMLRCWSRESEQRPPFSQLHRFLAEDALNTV
Sequence of kinases (KINOMEscan panel) (Homo sapiens, UniProt P11309) (P11309 whole entry): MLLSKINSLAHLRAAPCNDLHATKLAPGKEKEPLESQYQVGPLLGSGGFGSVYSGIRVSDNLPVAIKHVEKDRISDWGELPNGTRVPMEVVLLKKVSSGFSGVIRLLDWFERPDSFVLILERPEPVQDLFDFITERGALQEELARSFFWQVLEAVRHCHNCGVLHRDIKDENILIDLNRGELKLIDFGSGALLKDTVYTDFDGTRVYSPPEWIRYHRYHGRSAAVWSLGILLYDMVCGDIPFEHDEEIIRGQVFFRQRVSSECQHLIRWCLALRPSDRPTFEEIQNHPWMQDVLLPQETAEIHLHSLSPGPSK

As for `Cc1cccc(-c2nc(Nc3ccncc3)c3ccccc3n2)n1` [NK215], in data set [1], the “KINOMEscan ERN1” value is on record as 0. Besides, the “KINOMEscan PIM1” value in data set [2] was 0. For the same molecule, the “KINOMEscan AKT2” value in data set [3] is listed as 0. The “KINOMEscan GRK3” value in data set [4] is 0. In addition, the “KINOMEscan ACVR1” value in data set [5] is recorded as 15. Besides, the “KINOMEscan DDR1” value in [6] is recorded as 30. Besides, the “KINOMEscan TNNI3K” value in [7] is reported as 20. In addition, the “KINOMEscan LRRK2” value in data set [8] is 0. Further, the “KINOMEscan PLK2” value in [9] is 0. In data set [10], the “KINOMEscan WNK2” value is 0.
